Results reported in patent publication US20050181029A1, “Distributed drug dispensing matrix as a transdermal patch” (priority 2004, published 2005).

Experiments:
Type in all cases: in vitro ADME, pig
[1] = Polycarbonate/teflon array assembly, mannitol delivery across skin vs Franz diffusion cell; settings: reservoir size approaching 2.5 mm vs single 8 mm (16 mm diameter Franz cell) reservoir; 10 μCi/mL 3H-mannitol in 0.5% SLS in PBS; 24 hours
Description: The present invention is a novel transdermal drug delivery patch with an array of spatially organized reservoirs. In order to verify the validity of our invention we used three different assemblies, simulating the proposed matrix patch, that in essence provide the same working principle. All experiments were performed using pig skin. Skin was harvested from pigs (15) and was stored at −70° C. until the time of experiments. Skin was thawed at room temperature just before using it for experiments. A brief discussion of the experimental system used for the three cases follows. I. Polycarbonate/Teflon Array Assembly: This assembly consists of two plates made of polycarbonate/teflon—a donor plate and a receiver plate. The top plate (donor plate) has through holes (wells) drilled in it, each of which acts as an isolated donor chamber. The bottom plate (receiver plate) also has holes (wells) drilled in the same pattern as the donor plate and simulates the receiver compartment. The skin is placed between the donor and receiver plate and the plate assembly is clamped using four screws. […] At the end of 24 hours samples were drawn from the receiver plate and analyzed in a liquid scintillation counter (Packard Tri-Carb 2100TR, Packard Instrument Company, Meriden, Conn.). […] The data was then analyzed to verify any effect of a distributed dispensing system on the amount of drug delivered across the skin. […]

[2] = Patches holding agar gel disc reservoir arrays at constant area fraction, mannitol delivery; settings: 3 mm reservoir array (28 reservoirs) vs one 16 mm reservoir; area fraction ~20%; skin area 10.25 cm^2; identical formulation
Description: All enhancements are obtained by normalizing the amount delivered into the skin at any particular reservoir size to that delivered at 16 mm. Error bars correspond to one standard deviation (n=5).
To experimentally determine the enhancement obtained by reservoir arrays, we created patches holding reservoir arrays containing ^3H labeled mannitol as the model solute. These patches were created at varying reservoir sizes (16 mm, 9 mm, 5 mm and 3 mm). In these patches, the reservoirs were arranged in a square pattern with the center-to-center distance between two adjacent reservoirs set to twice the reservoir diameter. […] Keeping the area fraction the same for all the reservoir sizes (˜20%) drug reservoirs were placed on these skin pieces.

[3] = Agar gel disc assembly on Franz diffusion cell, mannitol skin permeability; settings: agar gel disks 16, 9, 5 and 3 mm, relative to 16 mm disk; 0.5% SLS in PBS; 24 hrs
Description: All experiments were performed using pig skin. Skin was harvested from pigs (15) and was stored at −70° C. until the time of experiments. Skin was thawed at room temperature just before using it for experiments. […] Agar Gel Disc Assembly: A third experimental system was used to assess the dependence of permeability on contact area. In this system, permeation of mannitol from gel disks was studied. For this purpose, agar gel disks were prepared by dissolving 0.5 gm agar (Becton Dickinson Microbiology Systems, Sparks, Md.) in 20 ml of 0.5% solution (w/v) SLS in PBS. 10 μCi/ml ^3H radiolabeled mannitol was added to the mixture. The mixture was heated until agar formed a viscous solution. The viscous mixture was allowed to settle into a gel by pouring it into a petri dish to form a circular disc of 3.5 mm thickness. Disks of various diameters (16, 9, 5, and 3 mm) were then cut using a punch. […] Receiver compartments were sampled over 24 hrs and concentration of radiolabeled mannitol in these samples was measured using a scintillation counter. Permeability was calculated for each reservoir size by dividing the total flux obtained by the number of reservoirs at that particular size. Enhancement factors were calculated by dividing the permeability obtained from a disk of a particular size with reference to permeability obtained from the largest disk (16 mm).

[4] = Polymer (polyurethane) array assembly, mannitol skin permeability; settings: polyurethane arrays, reservoirs 6 to 2 mm, relative to 6 mm reservoir; 0.5% SLS in PBS; 24 hrs; no clamping
Description: Polymer (Polyurethane) Array Assembly: Skin was placed in a PBS receiver fluid (10 ml) such that PBS contacted the skin on all sides and the bottom but not the top (FIG. 5). An array of liquid reservoirs was created by punching circular holes in a matrix pattern in a polyurethane slab (thickness=5 mm). These holes were separated from each other by one diameter. Such arrays were made for different size reservoirs (diameters in the range of 2-6 mm). The top surface of the skin was dried of any surface moisture. […]
Transdermal transport experiments were performed using mannitol as a model solute and sodium lauryl sulfate (SLS) as a model enhancer. […] Skin permeability in the skin exposed to reservoirs was calculated for each reservoir size by dividing the total amount delivered by the number of reservoirs, area of each reservoir, contact time, and mannitol concentration in each reservoir. Enhancement factors corresponding to various reservoir sizes were then calculated with reference to the permeability obtained from the largest reservoir (6 mm).
The enhancements are calculated with respect to the permeability obtained from a 6 mm reservoir.

OC[C@@H](O)[C@@H](O)[C@H](O)[C@H](O)CO [mannitol]
amount of mannitol delivered across the skin per unit area, normalized to single continuous reservoir [1]: exceeding 10 fold | amount of mannitol delivered per unit macroscopic area, array vs single large reservoir [2]: about 11 times | mannitol permeability enhancement for varying reservoir sizes [3]: significant increase in permeability is observed with a decrease in disk diameter | mannitol permeability enhancement as a function of reciprocal of reservoir size [4]: permeability enhancement increases with inverse reservoir size
